The target of data set [1] is Growth hormone secretagogue receptor type 1 (Homo sapiens, UniProt Q92847). Description: Agonist activity at human ghrelin receptor by cell based BACMAM FLIPR assay. Type of data set: functional.
Data set [2] can be described thus: Total body clearance in Sprague-Dawley rat at 1 mg/kg, iv. Type of data set: ADME, organism-based. The settings on record: in vivo. Set-up: dose 1 mg/kg, route intravenous.
A short description of data set [3]: Mean residence time in Sprague-Dawley rat at 1 mg/kg, iv. Conditions: in vivo. Set-up: dose 1 mg/kg, route intravenous. Type of data set: ADME, organism-based.
Data set [4] is described as follows: Half life in Sprague-Dawley rat at 1 mg/kg, iv. It counts as ADME, organism-based. Set-up: dose 1 mg/kg, route intravenous. Conditions: in vivo.
Data set [5] is described as follows: Tmax in Sprague-Dawley rat at 3 mg/kg, po. Type of data set: ADME, organism-based. Set-up: dose 3 mg/kg, route oral. The settings on record: in vivo.
The nature of data set [6]: Volume of distribution at steady state in Sprague-Dawley rat at 1 mg/kg, iv. It counts as ADME, organism-based. Set-up: dose 1 mg/kg, route intravenous. The settings on record: in vivo, read-out: Vdss.
The subject of another data set is Rattus norvegicus. Description: AUC (0 to 6 hrs) in Sprague-Dawley rat at 3 mg/kg, po. It counts as ADME, organism-based, Plasma. Set-up: time < 6 hr, dose 3 mg/kg, route oral. Conditions: in vivo.
A short description of data set [7]: Cmax in Sprague-Dawley rat at 3 mg/kg, po. The settings on record: in vivo. Set-up: dose 3 mg/kg, route oral. Type of data set: ADME, organism-based.
The nature of data set [8]: Cmax in Sprague-Dawley rat at 1 mg/kg, iv. Set-up: dose 1 mg/kg, route intravenous. It counts as ADME, organism-based. Conditions: in vivo.

Sequence of Growth hormone secretagogue receptor type 1 (Q92847 whole entry): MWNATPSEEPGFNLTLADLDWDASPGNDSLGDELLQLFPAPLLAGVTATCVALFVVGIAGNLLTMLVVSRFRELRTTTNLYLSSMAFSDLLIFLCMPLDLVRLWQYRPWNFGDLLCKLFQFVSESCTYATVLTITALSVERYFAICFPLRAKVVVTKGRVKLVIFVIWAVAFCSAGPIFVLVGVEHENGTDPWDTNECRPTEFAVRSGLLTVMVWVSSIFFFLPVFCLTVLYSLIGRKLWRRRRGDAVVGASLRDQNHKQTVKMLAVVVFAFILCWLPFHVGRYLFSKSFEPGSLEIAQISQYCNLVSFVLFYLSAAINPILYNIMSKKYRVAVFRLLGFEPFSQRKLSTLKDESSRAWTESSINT

By EC50 is commonly meant the concentration giving half of the maximal effect. A higher EC50 goes with a need for much substance. `Cc1ccc(-c2ccc(S(=O)(=O)N3CCCC[C@H]3C(=O)N3CC[C@H](N)C3)cc2F)o1` had an EC50 in data set [1] of 0.158 nM.

For the compound `Cc1ccc(-c2ccc(S(=O)(=O)N3CCCC[C@H]3C(=O)N3CCCNCC3)cc2)o1`, the EC50 in data set [1] was 7.94 nM. Consider `N[C@@H]1CCN(C(=O)[C@H]2CCCCN2S(=O)(=O)c2ccc(-c3ccccc3)cc2)C1`, for which the EC50 in data set [1] was over 5010 nM. On the same count and under the same terms, in the case of `Cc1ccc(-c2ccc(S(=O)(=O)N3CC[C@H](O)[C@H]3C(=O)N3CC[C@@H](N)C3)cc2F)o1` it was 0.2 nM; in that of `N[C@H]1CCN(C(=O)[C@@H]2CCCCN2S(=O)(=O)c2ccc(NC(=O)c3ccccc3)cc2)C1`, 20 nM; in that of `CNC1CCN(C(=O)[C@@H]2CCCCN2S(=O)(=O)c2ccc(-c3ccc(C)o3)cc2)C1` (stereo not given in full), 10 nM.

The compound `N[C@@H]1CCN(C(=O)[C@@H]2CCCCN2S(=O)(=O)c2ccc(-c3ccco3)cc2)C1` showed an EC50 in data set [1] of 31.6 nM. Still for that read-out and setting: in the case of `N[C@@H]1CCN(C(=O)[C@@H]2CCCCN2S(=O)(=O)c2ccc(-c3cc(F)ccc3F)cc2)C1` it was 1 nM; in that of `N[C@@H]1CCN(C(=O)[C@@H]2CCCCN2S(=O)(=O)c2ccc(-c3cc(Cl)ccc3Cl)cc2)C1`, 0.316 nM. Same read-out and setting: under `N[C@@H]1CCN(C(=O)[C@@H]2CCCCN2S(=O)(=O)c2ccc(-c3ccccc3)cc2)C1` stands 15.8 nM; under `Cc1ccc(-c2ccc(S(=O)(=O)N3CCCC[C@H]3C(=O)N3C[C@@H](C)N[C@@H](C)C3)cc2)o1`, 6.31 nM; under `N[C@@H]1CCN(C(=O)[C@@H]2CCCCN2S(=O)(=O)c2ccc(Br)cc2)C1`, 398 nM. The same measure, in the same setting: under `Cc1ccc(-c2ccc(S(=O)(=O)N3C[C@@H](O)C[C@H]3C(=O)N3CC[C@@H](N)C3)cc2F)o1` stands 5.01 nM.

Turning to `Cc1ccc(-c2ccc(S(=O)(=O)N3CCCC[C@H]3C(=O)N3CC[C@@H](N)C3)cc2)o1`, the EC50 in data set [1] was 0.251 nM. As a reminder, the clearance is a measure of how efficiently the substance is removed, as volume per time. A lower clearance goes with inefficient removal. A word on the MRT: it is a mean duration of stay, worked out from the concentration-time curve. In general, half-life refers to the time needed for the level to fall by half in the phase considered. Higher therefore signals slow decline. For orientation: Tmax means the time from dosing to the highest level. Broadly, the Cmax is the highest concentration seen after dosing. On to `Cc1ccc(-c2ccc(S(=O)(=O)N3CCC[C@H]3C(=O)N3CC[C@@H](N)C3)cc2F)o1`, for which the clearance in [2] stood at 25 mL/min/kg. The compound also registered an MRT in data set [3] of 2.4 h. Also, the half-life in [4] was 2.4 h. The Tmax in data set [5] is 4 h. In addition, the Vd in data set [6] came out at 3.5 L/kg. Further, the AUC with Rattus norvegicus is 5 kg·min/L. In addition, the Cmax in data set [7] came to 151 nM; in data set [8], 762 nM. Further, the EC50 in data set [1] was 0.398 nM. Consider `Cc1ccc(-c2ccc(S(=O)(=O)N3CCCC[C@H]3C(=O)N3C[C@@H](C)N[C@@H](C)C3)cc2F)o1`, for which, in [1], the midpoint of the response, the EC50, lay at 2.51 nM. This counts as single-digit nanomolar. Compound `Cc1ccc(-c2ccc(S(=O)(=O)N3C[C@H](O)C[C@H]3C(=O)N3CC[C@@H](N)C3)cc2F)o1` gave an EC50 in data set [1] of 0.501 nM.

With `Cc1ccc(-c2ccc(S(=O)(=O)N3CCNC[C@H]3C(=O)N3CC[C@@H](N)C3)cc2)o1`, the midpoint of the response in data set [1], the EC50, lay at 1.26 nM. In turn, `NC1CCN(C(=O)C2CCCCN2S(=O)(=O)c2ccc(-c3ccccc3)cc2)C1` (stereo not given) gave an EC50 in [1] of 31.6 nM. Against the preceding compound, the EC50 is about 25-fold higher. On the same count and under the same terms, in the case of `N[C@H]1CCN(C(=O)[C@@H]2CCCCN2S(=O)(=O)c2ccc(NC(=O)c3ccccc3F)cc2)C1` it was 3.98 nM; in that of `Cc1ccc(-c2ccc(S(=O)(=O)N3CCCC[C@H]3C(=O)N3CC[C@@H](N)C3)cc2F)o1`, 0.0501 nM; in that of `N[C@H]1CCN(C(=O)[C@@H]2CCCCN2S(=O)(=O)c2ccc(-c3cccnc3)cc2)C1`, 316 nM. On the same count and under the same terms, under `N[C@@H]1CCN(C(=O)[C@@H]2CCCCN2S(=O)(=O)c2ccc(-c3ccco3)c(F)c2)C1` stands 3.16 nM; under `N[C@H]1CCN(C(=O)[C@@H]2CCCCN2S(=O)(=O)c2ccc(-c3ccccc3)cc2)C1`, 7.94 nM. On to `COc1cccc(C(=O)Nc2ccc(S(=O)(=O)N3CCCC[C@H]3C(=O)N3CC[C@H](N)C3)cc2)c1`, for which the EC50 in data set [1] is 2 nM.

Take `Cc1ccc(-c2ccc(S(=O)(=O)N3CC[C@H]3C(=O)N3CC[C@@H](N)C3)cc2F)o1`: the EC50 in data set [1] is 15.8 nM.

As to `N[C@H]1CCN(C(=O)[C@H]2CCCCN2S(=O)(=O)c2ccc(-c3ccccc3)cc2)C1`, the EC50 in data set [1] was over 5010 nM.

Values taken from ChEMBL document CHEMBL1143355, “Aryl sulphonyl amides as potent agonists of the growth hormone secretagogue (ghrelin) receptor” (Bioorg Med Chem Lett, 2009).
